The source of these data is paper PMC6222558, “Synthesis and Evolution of Berberine Derivatives as a New Class of Antiviral Agents against Enterovirus 71 through the MEK/ERK Pathway and Autophagy” (Molecules : A Journal of Synthetic Chemistry and Natural …, 2018).

pIC50: −log10 of the molar value.

The subject of assay [1] is EV71 VP1 RNA. The experiment in a line: EV71 VP1 RNA by one-step qRT-PCR in infected Vero cells. Format: cell-based, enterovirus 71 (EV71). The conditions noted are these: Vero cells infected with H strain; 24 h; better than BBR. On the procedure:
(§1) To further confirm the anti-EV71 activity, the VP1 down-regulatory activity of 2d was examined in Vero cells infected with H strain of EV71, in comparison with that of BBR. […] Accordingly, VP1 capsid protein expression was also analyzed to examine its effect on EV71 biological synthesis.
Vero cells (9 × 10^5 cells/well) were plated into 6-well culture plates and incubated for 16 h. The medium was removed and cells were infected with EV71 for 1 h (H). Various concentrations of compound 2d and BBR were supplemented for incubation of another 24 h. Total RNA of the infected cells was isolated using the RNeasy Mini kit (QIAGEN, Hilden, Germany) and the information of the primer was listed in the Table 2.
One-step qRT-PCR was performed with SuperScript III Platinum SYBR Green One-step RT-PCR Kit (Invitrogen, Carlsbad, CA, USA) using the ABI 7500 Fast real-time PCR system (Applied Biosystems, Carlsbad, CA, USA). PCR assay was carried out in a 25 μL volume and the target fragment amplification was carried out as follows: reverse transcription at 50 °C for 3 min; initial activation of HotStar Taq DNA Polymerase at 95 °C for 10 min; 40 cycles in two steps: 95 °C for 15 s, 60 °C for 30 s.
In general terms: Quantitative PCR measures a nucleic acid by following its amplification.

Assay [2] relates to EV71-induced autophagy (AKT, JNK, PI3KIII, LC3II, Beclin-1). The experiment in a line: Western blot of autophagy proteins in EV71-infected Vero cells. Format: cell-based, African green monkey. The conditions noted are these: EV71 H, MOI = 0.1; 24 h treatment. From the text:
EV71 infection triggers autophagy, which provides a support for EV71 replication. Both JNK and PI3KIII proteins as upstream activators, play important roles in regulating autophagy, and inhibition of corresponding signaling pathway could down-regulate autophagy. Otherwise, AKT, as an inhibitor of autophagy factor, could inhibit autophagy with its activation. To further understand whether 2d still affected autophagy after structure modification, the inhibition of activation AKT and phosphorylation of JNK and PI3KIII proteins were also carried out using BBR as a reference.
(§2) Cells were lysed in the M-PER mammalian protein extraction reagent (Thermo, Rockford, IL, USA) containing halt protease inhibitor single-use cocktail (Thermo). The protein concentration was determined by BCA Protein Assay Kit (Thermo). Equal amount of samples (15 μg proteins) were denatured and applied to sodium dodecyl sulfate-polyacrylamide gel electrophoresis (SDS-PAGE), and then electrophoresis products were transferred to a polyvinylidenefluoride (PVDF) film and blocked by 5% (w/v) milk or BSA at room temperature. An hour later, PVDF membranes were incubated at room temperature with specific primary antibody. After a standard washing, membranes were incubated with horse radish peroxidase (HRP)-labeled secondary antibody. The signals were detected using ECL detection kit (GE Healthcare Life Sciences, Pittsburgh, PA, USA). The primary antibodies used in the experiment included β-actin, p-p44/p42 MAPK, p44/p42 MAPK, p-MEK, MEK, p-JNK, JNK, p-AKT, AKT, PI3KIII, LC3B, Beclin-1 (Cell Signaling Technology, Danvers, MA, USA), and EV71-VP1 (Abnova, Taibei, China). HRP-labeled secondary antibodies included goat anti-rabbit and anti-mouse HRP-labeled antibodies (Cell Signaling Technology).
Figure 4 Compound 2d inhibits EV71-induced autophagy. Vero cells were mock-infected or infected with EV71 (H, MOI = 0.1) for 1 h. The cells were then treated with compound 2d and BBR for 24 h. The cells were harvested and proteins were examined by western blot.

The test system of assay [3] is MEK/ERK signaling pathway. The experiment in a line: Western blot of MEK/ERK phosphorylation in EV71-infected Vero cells. Particulars: EV71 H, MOI = 0.1; 24 h treatment. It counts as cell-based, African green monkey.
From the text: The activation of the MEK/ERK signaling pathway has been certified to play an essential role in EV71 life cycle and pathogenesis in various cell types. […] To learn whether or not 2d would still act through MEK/ERK pathway as its parent BBR does, the inhibition experiment of EV71 via this signaling pathway was done with 2d using BBR as the reference. […] We can conclude that compound 2d inhibited the replication of EV71 through down-regulating MEK/ERK signaling pathway.
as §2, with “The primary antibodies used in the experiment included β-actin, p-p44/p42 MAPK, p44/p42 MAPK, p-MEK, MEK, p-JNK, JNK, p-AKT, AKT, PI3KIII, LC3B, Beclin-1 (Cell Signaling Technology, Danvers, MA, USA), and EV71-VP1 (Abnova, Taibei, China). HRP-labeled secondary antibodies included goat anti-rabbit and anti-mouse HRP-labeled antibodies (Cell Signaling Technology).” left out
A general note: Immunoblotting shows a protein as a band on a membrane.

Assay [4] concerns EV71 VP1 protein. The experiment in a line: EV71 VP1 protein by western blot in infected Vero cells. It counts as cell-based, enterovirus 71 (EV71). The conditions noted are these: Vero cells infected with H strain; better than BBR at 40 μM. On the procedure: as §1
as §2, with “HRP-labeled secondary antibodies included goat anti-rabbit and anti-mouse HRP-labeled antibodies (Cell Signaling Technology).” left out

Assay [5] deals with EV71 SHZH98 strain (genotype C4). The experiment in a line: CPE inhibition assay for anti-EV71, SHZH98 strain. Format: cell-based, enterovirus 71 (EV71). Particulars: Enterovirus A, EV71; Vero cells; CPE; calculated on the organic part; n = 3; read-out: SHZH98 Strain IC50. The method in brief: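 Vero cells infected with 100 × TCID50 EV71 for 1 h at 37 °C in serum-free medium, unbound virus removed, then compounds added for 72 h. IC50 from inhibition of virus-induced CPE; TC50 as concentration giving 50% CPE at 72 h, with selectivity index; crystal violet staining for imaging.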

Consider `COc1ccc2cc3[n+](cc2c1OCC(=O)OCc1ccccc1)CCc1cc2c(cc1-3)OCO2` [2d, 2,3-Methylenedioxy-9-benzyloxyformylmethylenoxy-10-methoxyprotoberberine chloride], for which the “VP1 RNA expression” value in assay [1] is given as “significantly reduced VP1 RNA expression in a dose-dependently way”. In assay [2], the AKT activation entry is “activate AKT”; the “LC3II (marker for autophagy)” value was “decreased”; the “expression of Beclin-1” value was “could not affect the expression of Beclin-1”; the “phosphorylation of JNK and PI3KIII proteins” value is “inhibit the phosphorylation of JNK and PI3KIII proteins”. Moreover, in assay [3], the “phosphorylation of MEK and ERK induced by EV71 infection” value was “significantly inhibit the phosphorylation of both MEK and ERK”. In addition, the VP1 protein expression result in assay [4] is reported as “obviously down-regulate the expression of VP1 protein in a dose-dependent manner”. In assay [5], the pIC50 (commonly the IC50 on a negative log10 scale, so that one unit is a factor of ten) was 4.83.
